# In patent publication US5371102A, “Compositions and methods of inhibiting thyroid activity” (priority 1993, dated 1994):
# Entries after “also recorded” stand apart in the source; their conditions may differ. Like-named read-outs stand apart in the source and are kept apart here.
# Key:
# [1] = test system: LPX; conditions: cited from earlier work
# [2] = test system: TPX; conditions: cited from earlier work
# [3] = biological target: T1, TPX (Sus scrofa, UniProt P09933); test: TPX-catalyzed iodide oxidation (triiodide formation), spectrophotometric; format: biochemical, hog; conditions: TPX, H2O2 and I-
# T1 sequence (P09933 15-926): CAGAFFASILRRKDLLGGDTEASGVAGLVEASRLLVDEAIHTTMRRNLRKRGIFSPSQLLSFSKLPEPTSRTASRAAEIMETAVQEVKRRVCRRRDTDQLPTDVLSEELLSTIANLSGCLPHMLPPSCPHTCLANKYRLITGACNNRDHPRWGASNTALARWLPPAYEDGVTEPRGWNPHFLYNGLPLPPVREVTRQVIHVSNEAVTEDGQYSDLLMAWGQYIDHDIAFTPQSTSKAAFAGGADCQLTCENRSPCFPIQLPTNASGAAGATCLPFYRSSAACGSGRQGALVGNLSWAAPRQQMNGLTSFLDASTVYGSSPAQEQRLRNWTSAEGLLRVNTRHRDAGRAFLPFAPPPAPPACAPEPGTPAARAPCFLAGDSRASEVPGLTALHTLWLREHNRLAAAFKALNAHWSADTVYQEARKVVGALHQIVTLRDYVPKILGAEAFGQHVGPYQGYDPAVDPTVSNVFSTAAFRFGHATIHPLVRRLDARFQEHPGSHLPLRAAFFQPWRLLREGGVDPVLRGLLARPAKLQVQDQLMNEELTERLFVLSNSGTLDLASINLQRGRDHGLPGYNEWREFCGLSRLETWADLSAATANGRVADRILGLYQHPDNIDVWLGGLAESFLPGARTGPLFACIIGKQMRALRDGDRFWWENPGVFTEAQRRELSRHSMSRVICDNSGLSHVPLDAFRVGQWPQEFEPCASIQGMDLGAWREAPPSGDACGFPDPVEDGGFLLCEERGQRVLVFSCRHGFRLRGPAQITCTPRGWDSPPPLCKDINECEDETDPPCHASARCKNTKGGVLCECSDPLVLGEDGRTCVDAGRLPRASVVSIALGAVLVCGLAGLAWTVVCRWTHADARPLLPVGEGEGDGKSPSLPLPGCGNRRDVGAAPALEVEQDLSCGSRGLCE
# Source text: (§1) Materials used in the examples below were obtained from the following sources. Bovine LPX, bovine liver catalase, glucose oxidase, 30% hydrogen peroxide, glucose, guaiacol, ABTS and deuterium oxide were purchased from Sigma Chemical Company. Selenium dioxide, MBI ^13 CH3 I and PBA were purchased from Aldrich Chemical Company and PBA was purified as previously described by Fieset et al., Reagents for Organic Synthesis, Vol. I, pp.135-139, John Wiley and Sons, N.Y. (1967). LPX purity was checked by PAGE, as described by Doerge, D.R., et al. in, Biochem. Pharmacol., Vol.36, pp.972-974 (1986). TPX was purified from hog thyroids obtained from a local slaughterhouse by published procedures. Doerge & Takazowa, Chemical Research in Toxicology, Vol. 3, pp. 98-101 (1990). TPX purity was determined by LC and its concentration determined spectophotometrically. Hydroperoxide concentrations were determined by iodometric titration, as described by Kolthoff, et al., in "Quantitative Chemical Analysis", Macmillan, London, pp.842-860 (1969). MMBI, and BI were synthesized by published procedures as described by Doerge, D.R., Biochem, Vol. 27, pp. 3697-3700 (1988) and were recrystallized from aqueous ethanol. MeBI was purified by distillation and DMeBI^+ was synthesized and purified by recrystallization from ethyl acetate/methanol. 1-^13 C-MMBI was synthesized from ^13 CH3 I according to the procedure disclosed by Doerge, D.R., in, J. Lab. Comp. and Radiopharm., Vol.25, pp.985-990 (1988). PPHP and PPA were prepared, purified and analyzed as previously described by Doerge, Biochem, Vol.27, p.11 (1988). The methyl ester of 1-methyl-benzimidazole-2-sulfinic acid was prepared by addition of hydrogen peroxide (5 equivalents of a 10 M solution) to MMBI (0.1 M) in methanol. The products, MeBI and the ester, were obtained following preparative TLC on silica (Uniplate, Analtech Co., Newark, DL) using 5% methanol/chloroform as eluant. […]
# 1,3-diacetyl MBI (AczMBI) was synthesized according to the method published by Doerge et al., Syn. […] Varying quantities of Ac2 MBI were incubated with TPX, H2 O2, and I^-. […]
# [4] = test system: LPX and TPX; test: suicide inhibition of peroxidases (summary statements); format: biochemical; conditions: for suicide inhibition: summary of own examples
# [5] = biological target: T1, TPX; test: covalent binding to TPX in the presence of H2O2; design: species or system hog
# Source text: as §1, with “MeBI was purified by distillation and DMeBI^+ was synthesized and purified by recrystallization from ethyl acetate/methanol. 1-^13 C-MMBI was synthesized from ^13 CH3 I according to the procedure disclosed by Doerge, D.R., in, J. Lab. Comp. and Radiopharm., Vol.25, pp.985-990 (1988).” left out, “(1988).” for “(1988). The methyl ester of 1-methyl-benzimidazole-2-sulfinic acid was prepared by addition of hydrogen peroxide (5 equivalents of a 10 M solution) to MMBI (0.1 M) in methanol. The products, MeBI and the ester, were obtained following preparative TLC on silica (Uniplate, Analtech Co., Newark, DL) using 5% methanol/chloroform as eluant.”
# [6] = biological target: T1, TPX; test: TPX inactivation; format: biochemical, hog; conditions: presence of hydrogen peroxide
# Source text: (§2) Materials used in the examples below were obtained from the following sources. Bovine LPX, bovine liver catalase, glucose oxidase, 30% hydrogen peroxide, glucose, guaiacol, ABTS and deuterium oxide were purchased from Sigma Chemical Company. Selenium dioxide, MBI ^13 CH3 I and PBA were purchased from Aldrich Chemical Company and PBA was purified as previously described by Fieset et al., Reagents for Organic Synthesis, Vol. I, pp.135-139, John Wiley and Sons, N.Y. (1967). LPX purity was checked by PAGE, as described by Doerge, D.R., et al. in, Biochem. Pharmacol., Vol.36, pp.972-974 (1986). TPX was purified from hog thyroids obtained from a local slaughterhouse by published procedures. Doerge & Takazowa, Chemical Research in Toxicology, Vol. 3, pp. 98-101 (1990). TPX purity was determined by LC and its concentration determined spectophotometrically. Hydroperoxide concentrations were determined by iodometric titration, as described by Kolthoff, et al., in "Quantitative Chemical Analysis", Macmillan, London, pp.842-860 (1969). MMBI, and BI were synthesized by published procedures as described by Doerge, D.R., Biochem, Vol. 27, pp. 3697-3700 (1988) and were recrystallized from aqueous ethanol. MeBI was purified by distillation and DMeBI^+ was synthesized and purified by recrystallization from ethyl acetate/methanol. 1-^13 C-MMBI was synthesized from ^13 CH3 I according to the procedure disclosed by Doerge, D.R., in, J. Lab. Comp. and Radiopharm., Vol.25, pp.985-990 (1988). PPHP and PPA were prepared, purified and analyzed as previously described by Doerge, Biochem, Vol.27, p.11 (1988). The methyl ester of 1-methyl-benzimidazole-2-sulfinic acid was prepared by addition of hydrogen peroxide (5 equivalents of a 10 M solution) to MMBI (0.1 M) in methanol. The products, MeBI and the ester, were obtained following preparative TLC on silica (Uniplate, Analtech Co., Newark, DL) using 5% methanol/chloroform as eluant.
# DMMBI was synthesized according to a published method. Duffin et al., J. Chem. Soc., Part II, pp.364-365 (1956). Samples including TPX, H2 O2, and I^- were incubated with and without DMMBI. Triiodide formation was observed spectrophotometrically with respect to time.
# [7] = biological target: T2, LPX (Bos taurus, UniProt P80025); test: LPX-mediated covalent binding of labelled thiocarbamides to LPX; design: species or system bovine; conditions: +H2O2 vs. +H2O2 +KI; 14C- and 35S-labelled
# T2 construct: purchased Sigma Chemical Company
# Source text: as §2
# LPX-mediated covalent binding of ^14 C- and ^35 S-labelled thiocarbamides to LPX under iodide-dependent and -independent conditions was measured.
# [8] = biological target: T2, LPX; test: LPX suicide inactivation kinetics; format: biochemical, bovine
# Source text: as §2
# Inhibition of LPX activity by thiones was determined from the kinetics of iodide ion, guaiacol or ABTS oxidation assays conducted at 25° C. Kinetic parameters of suicide inactivation were determined as previously described. Doerge, Biochem. Vol.27, pp.3697-3700 (1988).
# [9] = chemical oxidation stoichiometry of thiones; format: physicochemical; conditions: for moles of oxidant required for total reaction: PBA, FIG. 4
# Method: Oxidation stoichiometries were determined for the thione compounds MBI, MMBI and DMMBI by incubating the thiones with varying amounts of PBA (0-250μM). The rapid reaction (t1/2 <10 s at 25° C.) of benzimidazole-2-thiones with PBA in methanol provided a convenient method for determining oxidation stoichiometry.
# (§3) Oxidation stoichiometries were determined spectrophoto, metrically, using a Hewlett Packard 8452A diode array spectrophotometer, by measuring thione concentration at 305 nm as a function of PBA concentration. Hydroperoxide content was determined iodometrically. Stoichiometries of substrate consumption/product formation were also determined by addition of limiting amounts of PBA to 100 μM MBI or MMBI in 50% methanol/pH 7 phosphate. The disappearance of thione and the production of BI, MeBI and bisulfite ion was determined after one hour at 25° C. The production of bisulfite ion was measured […]. The production of sulfate ion was determined by ion chromatography using a AS4A column (Dionex Co., Sunnyvale, CA) with a Dionex Gradient Pump Module and a Dionex CDM II conductivity detector equipped with an AMMS suppressor using 3 mM carbonate/bicarbonate buffer pH 10 as eluant at 2.0 ml/min. Reaction products were also monitored by ^1 H NMR performed at 300 MHz using a Nicolet NT300 or General Electric QE300 spectrometer DSS as a reference.
# [10] = thione reaction with PBA in aqueous buffered methanol, product ratios; format: physicochemical; conditions: thione 100 μM, PBA 0-200 μM
# Method: as §3
# The reaction of MBI and MMBI with PBA was also examined in aqueous buffered methanol. Thione (100 μM) was incubated with varying concentrations of PBA (0-200 μM). Reactant and product quantities were determined by LC as described in example 1. The ratios of product formation to thione consumption were calculated, and are reported below in Table 1. The values are averages of two slope determinations, i.e., moles of product formed or reactant consumed vs. moles of oxidant added, each determined from at least five data points.
# [11] = kinetics of thione oxygenation by hydrogen peroxide/TFA; format: physicochemical; conditions: thione 25 μM, H2O2 34 mM, TFA 163 mM in methanol, 25° C.; relative to DMMBI
# Method: The kinetics of thione oxygenation were determined for MBI, MMBI and DMMBI. Oxygenation by hydrogen peroxide/TFA was measured spectrophotometrically (305 nm) at 25° C. by addition of thione (final concentration 25 μM) to hydrogen peroxide (34 mM) and TFA (163 mM) in methanol.
# [12] = cited from earlier work
# [13] = test system: LPX and TPX; conditions: currently used drugs, background; cited from earlier work
structure (smiles),measurement,setting,value
"S=C1NCCN1 [ETU, imidazolidine-2-thione]",inhibition of LPX-catalyzed iodination,[1],inhibits TPX- and LPX-catalyzed iodination reactions
same,inhibition of TPX-catalyzed iodination,[2],inhibits TPX- and LPX-catalyzed iodination reactions
"CC(=O)n1c(=S)n(C(C)=O)c2ccccc21 [Ac2 MBI, 1,3-diacetylbenzimidazole-2-thione]",effect on triiodide formation,[3],exhibits similar inhibition of triiodide formation as was observed with DMMBI
same,selectivity for iodide ion oxidation,[4]; alternate substrate mechanism,block only reactions involving iodide ion oxidation
same,suicide inhibition,[4],not suicide inhibitors
"Cn1c(S)nc2ccccc21 [MMBI, 1-methylbenzimidazole-2-thione]",covalent binding to TPX,[5],bind covalently to LPX and TPX
same,TPX inactivation,[6],"rapid, irreversible loss of LPX and TPX activity; also recorded: cause rapid, irreversible enzyme inactivation"
same,covalent binding to LPX,[7],become covalently bound to LPX
same,partition ratio (LPX inactivation),[8]; 25° C.,~35
same,KI (inactivation),[8]; 25° C.; read-out: Ki (LPX inactivation),0.274 µM
same,LPX inactivation / loss of LPX activity,[8]; presence of hydrogen peroxide,"rapid, irreversible loss of LPX and TPX activity; also recorded: cause rapid, irreversible enzyme inactivation"
same,moles of oxidant required for total reaction,[9],two
same,equivalents of hydroperoxide required per mole of thione,[9]; hydroperoxides,2 equivalents
same,PBA/thione,[10],1.98
same,benzimidazole/thione,[10],0.87
same,bisulfite/thione,[10],0.72
same,suicide inhibition,[4],suicide inhibitors
same,relative rate of oxygenation,[11],1.3
"CCOC(=O)n1ccn(C)c1=S [carbimazole, 1-carboxyethyl-3-methylimidazole-2-thione]",in vivo stability / conversion,[12],labile in vivo and is rapidly converted to methimazole
"Cn1cc[nH]c1=S [MMI, 1-methylimidazole-2-thione]",suicide inhibition,[13],suicide inhibitors
CCCc1cc(=O)[nH]c(=S)[nH]1 [propylthiouracil],suicide inhibition,[13],suicide inhibitors
"Sc1nc2ccccc2[nH]1 [MBI, benzimidazole-2-thione]",covalent binding to TPX,[5],bind covalently to LPX and TPX
same,TPX inactivation,[6],"rapid, irreversible loss of LPX and TPX activity; also recorded: cause rapid, irreversible enzyme inactivation"
same,covalent binding to LPX,[7],become covalently bound to LPX
same,partition ratio (LPX inactivation),[8]; 25° C.,approximately 3
same,LPX inactivation / loss of LPX activity,[8]; presence of hydrogen peroxide,"rapid, irreversible loss of LPX and TPX activity; also recorded: cause rapid, irreversible enzyme inactivation"
same,KI (inactivation),[8]; read-out: Ki (LPX inactivation); 25° C.,0.0001 µM
same,moles of oxidant required for total reaction,[9],two
same,PBA/thione,[10],1.89
same,benzimidazole/thione,[10],0.89
same,bisulfite/thione,[10],0.72
same,suicide inhibition,[4],suicide inhibitors
same,relative rate of oxygenation,[11],2.3
